{
  "source": "patent US20250382268A1",
  "about": "“METHODS AND COMPOSITIONS FOR SELECTIVELY INHIBITING PATHOGENIC MICROBES” (priority 2019, published 2025)",
  "key": {"Staphylococcus aureus": {"system": "Staphylococcus aureus", "experiment": "microbe, parasite or virus in culture"}, "Francisella tularensis": {"system": "Francisella tularensis", "experiment": "microbe, parasite or virus in culture", "format": "cell-based", "details": "read-out: Francisella tularensis NR-577 MIC, strain NR-577"}, "[1]": {"system": "Burkholderia thailandensis", "experiment": "microbe, parasite or virus in culture", "format": "cell-based"}, "HepG2 cells": {"system": "HepG2 cells", "experiment": "Cytotoxicity MTT assay in HepG2 cells", "format": "cell-based", "details": "Homo sapiens", "method": "Additionally, the antimicrobial compounds were analyzed for cytotoxicity. […] We utilized the standard MTT assay (Promega CellTiter 96) and GraphPad Prism 7 software to determine EC50 values for each analogue. Briefly, 20,000 HepG2 cells in 200 μl of the ATCC recommended media were seeded in each well of a 96-well plate with a moisture barrier created in the outermost wells. The cells were allowed to attach overnight at 37° C., and then observed under phase contrast microscopy for proper morphological characteristics. […] Once incubations were complete, the spectrophotometric absorbance of the samples was measured at a wavelength of 595 nm. […] For the HepaRG assay, NoSpin HepaRG™ cells (Lonza, cat #NSHPRG) were thawed and plated with 20,000 cells per well. They were allowed to attach for 4 h (optimal DME profile per Lonza's testing) before dosing following the identical protocol as above."}, "Burkholderia cenocepacia": {"system": "Burkholderia cenocepacia", "experiment": "microbe, parasite or virus in culture", "format": "cell-based"}, "[2]": {"experiment": "Toxicity study in mice, body weight over 7 days", "format": "in vivo", "details": "6-week-old Balb/c mice", "from_the_text": "The vehicle is 40% PEG300 solution in 0.9% NaCl. […] Thus, the compounds are useful for in vivo antimicrobial administration."}, "[3]": {"details": "MRSA, read-out: Staphylococcus aureus MIC, MRSA strain HM-467"}, "[4]": {"details": "MRSA, read-out: Staphylococcus aureus MIC, MRSA strain NK-41886"}, "[5]": {"details": "MRSA, read-out: Staphylococcus aureus MIC, MRSA strain NR-13533"}, "[6]": {"details": "MRSA, read-out: Staphylococcus aureus MIC, MRSA strain NR-28983"}, "[7]": {"details": "MRSA, read-out: Staphylococcus aureus MIC, MRSA strain NR-41875"}, "[8]": {"details": "MRSA, read-out: Staphylococcus aureus MIC, MRSA strain NR-41876"}, "[9]": {"details": "MRSA, read-out: Staphylococcus aureus MIC, MRSA strain NR-41877"}, "[10]": {"details": "MRSA, read-out: Staphylococcus aureus MIC, MRSA strain NR-41878"}, "[11]": {"details": "read-out: Staphylococcus aureus MIC, VSSA NR-49121"}},
  "note": "Where two headings read alike, the source gives them in different places.",
  "data": [
    {"smiles": "Brc1ccc(Sc2c[nH]c3ccc(Br)cc23)cc1", "note": "[Compound 172D, 5-bromo-3-((4-bromophenyl)thio)-1H-indole]", "values": [
      {"measurement": "MIC", "setting": "Staphylococcus aureus; [3]", "value": 12.5, "unit": "mg/L"},
      {"measurement": "MIC", "setting": "Staphylococcus aureus; [4]", "value": 1.56, "unit": "mg/L"},
      {"measurement": "MIC", "setting": "Staphylococcus aureus; [5]", "value": 1.56, "unit": "mg/L"},
      {"measurement": "MIC", "setting": "Staphylococcus aureus; [6]", "value": 1.56, "unit": "mg/L"},
      {"measurement": "MIC", "setting": "Staphylococcus aureus; [7]", "value": 3.13, "unit": "mg/L"},
      {"measurement": "MIC", "setting": "Staphylococcus aureus; [8]", "value": 1.56, "unit": "mg/L"},
      {"measurement": "MIC", "setting": "Staphylococcus aureus; [9]", "value": 3.13, "unit": "mg/L"},
      {"measurement": "MIC", "setting": "Staphylococcus aureus; [10]", "value": 1.56, "unit": "mg/L"},
      {"measurement": "MIC", "setting": "Staphylococcus aureus; [11]", "value": 1.56, "unit": "mg/L"}
    ]},
    {"smiles": "c1ccc(Oc2c[nH]c3ccccc23)cc1", "note": "[Compound 925C, 3-phenoxy-1H-indole]", "values": [
      {"measurement": "MIC", "setting": "Francisella tularensis", "value": 8, "unit": "mg/L"}
    ]},
    {"smiles": "Oc1ccc(Sc2c[nH]c3ccccc23)cc1", "note": "[Compound 156I, 4-((1H-indol-3-yl)thio)phenol]", "values": [
      {"measurement": "MBC", "setting": "[1]", "value": 100, "unit": "mg/L"},
      {"measurement": "MIC", "setting": "[1]", "value": 50, "unit": "mg/L"},
      {"measurement": "EC50", "setting": "HepG2 cells", "value": 12.1, "unit": "mg/L"},
      {"measurement": "MBC", "setting": "Burkholderia cenocepacia", "value": 150, "unit": "mg/L"},
      {"measurement": "MIC", "setting": "Burkholderia cenocepacia", "value": 50, "unit": "mg/L"}
    ]},
    {"smiles": "CCc1ccccc1Sc1c[nH]c2ccc(C(F)(F)F)cc12", "note": "[Compound 177G, 3-((2-ethylphenyl)thio)-5-(trifluoromethyl)-1H-indole]", "values": [
      {"measurement": "EC50", "setting": "HepG2 cells", "value": 29.5, "unit": "mg/L"}
    ]},
    {"smiles": "Clc1ccc2[nH]cc(Sc3ccc(Br)cc3)c2c1", "note": "[Compound 174C, 3-((4-bromophenyl)thio)-5-chloro-1H-indole]", "values": [
      {"measurement": "EC50", "setting": "HepG2 cells", "value": 25.4, "unit": "mg/L"}
    ]},
    {"smiles": "Brc1ccc(Sc2c[nH]c3ccccc23)cc1", "note": "[Compound 156K, 3-((4-bromophenyl)thio)-1H-indole]", "values": [
      {"measurement": "EC50", "setting": "HepG2 cells", "value": 27.6, "unit": "mg/L"}
    ]},
    {"smiles": "OCc1[nH]c2ccc(Br)cc2c1Sc1ccccc1Br", "note": "[Compound 177H, (5-bromo-3-((2-bromophenyl)thio)-1H-indol-2-yl)methanol]", "values": [
      {"measurement": "EC50", "setting": "HepG2 cells", "value": 31.8, "unit": "mg/L"}
    ]},
    {"smiles": "Fc1ccccc1Sc1c[nH]c2ccc(C(F)(F)F)cc12", "note": "[Compound 177D, 3-((2-fluorophenyl)thio)-5-(trifluoromethyl)-1H-indole]", "values": [
      {"measurement": "EC50", "setting": "HepG2 cells", "value": 27.1, "unit": "mg/L"}
    ]},
    {"smiles": "Fc1ccccc1Sc1c[nH]c2ccc(Br)cc12", "note": "[Compound 174AU, 5-bromo-3-((2-fluorophenyl)thio)-1H-indole]", "values": [
      {"measurement": "MIC", "setting": "Staphylococcus aureus; [3]", "value": 2, "unit": "mg/L"},
      {"measurement": "MIC", "setting": "Staphylococcus aureus; [4]", "value": 2, "unit": "mg/L"},
      {"measurement": "MIC", "setting": "Staphylococcus aureus; [5]", "value": 2, "unit": "mg/L"},
      {"measurement": "MIC", "setting": "Staphylococcus aureus; [6]", "value": 2, "unit": "mg/L"},
      {"measurement": "MIC", "setting": "Staphylococcus aureus; [7]", "value": 2, "unit": "mg/L"},
      {"measurement": "MIC", "setting": "Staphylococcus aureus; [8]", "value": 2, "unit": "mg/L"},
      {"measurement": "MIC", "setting": "Staphylococcus aureus; [9]", "value": 4, "unit": "mg/L"},
      {"measurement": "MIC", "setting": "Staphylococcus aureus; [10]", "value": 2, "unit": "mg/L"},
      {"measurement": "MIC", "setting": "Staphylococcus aureus; [11]", "value": 4, "unit": "mg/L"},
      {"measurement": "toxicity by body weight", "setting": "[2]", "value": "did not have significant toxicity"}
    ]},
    {"smiles": "CCc1ccccc1Sc1c(CO)[nH]c2ccc(C(F)(F)F)cc12", "note": "[Compound 177I, (3-((2-ethylphenyl)thio)-5-(trifluoromethyl)-1H-indol-2-yl)methanol]", "values": [
      {"measurement": "EC50", "setting": "HepG2 cells", "value": 31.3, "unit": "mg/L"}
    ]},
    {"smiles": "Oc1ccc(Sc2c[nH]c3ccc(C(F)(F)F)cc23)cc1", "note": "[Compound 177B, 4-((5-(trifluoromethyl)-1H-indol-3-yl)thio)phenol]", "values": [
      {"measurement": "EC50", "setting": "HepG2 cells", "value": 27.7, "unit": "mg/L"}
    ]},
    {"smiles": "Oc1ccccc1Sc1c[nH]c2ccc(C(F)(F)F)cc12", "note": "[Compound 177A, 2-((5-(trifluoromethyl)-1H-indol-3-yl)thio)phenol]", "values": [
      {"measurement": "EC50", "setting": "HepG2 cells", "value": 24.1, "unit": "mg/L"}
    ]},
    {"smiles": "FC(F)(F)c1ccc2[nH]cc(Sc3ccccc3Br)c2c1", "note": "[Compound 174AX, 3-((2-bromophenyl)thio)-5-(trifluoromethyl)-1H-indole]", "values": [
      {"measurement": "MIC", "setting": "Staphylococcus aureus; [3]", "value": 2, "unit": "mg/L"},
      {"measurement": "MIC", "setting": "Staphylococcus aureus; [4]", "value": 2, "unit": "mg/L"},
      {"measurement": "MIC", "setting": "Staphylococcus aureus; [5]", "value": 1, "unit": "mg/L"},
      {"measurement": "MIC", "setting": "Staphylococcus aureus; [6]", "value": 2, "unit": "mg/L"},
      {"measurement": "MIC", "setting": "Staphylococcus aureus; [7]", "value": 1, "unit": "mg/L"},
      {"measurement": "MIC", "setting": "Staphylococcus aureus; [8]", "value": 2, "unit": "mg/L"},
      {"measurement": "MIC", "setting": "Staphylococcus aureus; [9]", "value": 2, "unit": "mg/L"},
      {"measurement": "MIC", "setting": "Staphylococcus aureus; [10]", "value": 1, "unit": "mg/L"},
      {"measurement": "MIC", "setting": "Staphylococcus aureus; [11]", "value": 1, "unit": "mg/L"}
    ]},
    {"smiles": "Clc1ccc(Sc2c[nH]c3ccc(Br)cc23)cc1", "note": "[Compound 174J, 5-bromo-3-((4-chlorophenyl)thio)-1H-indole]", "values": [
      {"measurement": "EC50", "setting": "HepG2 cells", "value": 25.3, "unit": "mg/L"}
    ]},
    {"smiles": "FC(F)(F)c1ccccc1Sc1c[nH]c2ccc(Br)cc12", "note": "[Compound 174AV, 5-bromo-3-((2-(trifluoromethyl)phenyl)thio)-1H-indole]", "values": [
      {"measurement": "MIC", "setting": "Staphylococcus aureus; [3]", "value": 2, "unit": "mg/L"},
      {"measurement": "MIC", "setting": "Staphylococcus aureus; [4]", "value": 2, "unit": "mg/L"},
      {"measurement": "MIC", "setting": "Staphylococcus aureus; [5]", "value": 1, "unit": "mg/L"},
      {"measurement": "MIC", "setting": "Staphylococcus aureus; [6]", "value": 1, "unit": "mg/L"},
      {"measurement": "MIC", "setting": "Staphylococcus aureus; [7]", "value": 1, "unit": "mg/L"},
      {"measurement": "MIC", "setting": "Staphylococcus aureus; [8]", "value": 2, "unit": "mg/L"},
      {"measurement": "MIC", "setting": "Staphylococcus aureus; [9]", "value": 2, "unit": "mg/L"},
      {"measurement": "MIC", "setting": "Staphylococcus aureus; [10]", "value": 2, "unit": "mg/L"},
      {"measurement": "MIC", "setting": "Staphylococcus aureus; [11]", "value": 2, "unit": "mg/L"}
    ]},
    {"smiles": "OCc1ccccc1Sc1c[nH]c2ccc(Br)cc12", "note": "[Compound 174AT, (2-((5-bromo-1H-indol-3-yl)thio)phenyl)methanol]", "values": [
      {"measurement": "MIC", "setting": "Staphylococcus aureus; [3]", "value": 32, "unit": "mg/L"},
      {"measurement": "MIC", "setting": "Staphylococcus aureus; [4]", "value": 16, "unit": "mg/L"},
      {"measurement": "MIC", "setting": "Staphylococcus aureus; [5]", "value": 16, "unit": "mg/L"},
      {"measurement": "MIC", "setting": "Staphylococcus aureus; [6]", "value": 16, "unit": "mg/L"},
      {"measurement": "MIC", "setting": "Staphylococcus aureus; [7]", "value": 16, "unit": "mg/L"},
      {"measurement": "MIC", "setting": "Staphylococcus aureus; [8]", "value": 16, "unit": "mg/L"},
      {"measurement": "MIC", "setting": "Staphylococcus aureus; [9]", "value": 16, "unit": "mg/L"},
      {"measurement": "MIC", "setting": "Staphylococcus aureus; [10]", "value": 16, "unit": "mg/L"},
      {"measurement": "MIC", "setting": "Staphylococcus aureus; [11]", "value": 16, "unit": "mg/L"}
    ]},
    {"smiles": "COc1ccc2[nH]cc(Sc3ccc(Br)cc3)c2c1", "note": "[Compound 172E, 3-((4-bromophenyl)thio)-5-methoxy-1H-indole]", "values": [
      {"measurement": "EC50", "setting": "HepG2 cells", "value": 23.3, "unit": "mg/L"}
    ]}
  ]
}
